US7488811B2, “Macrolide compounds endowed with antiinflammatory activity” (Zambon Group S.p.A., priority 2002, dated 2009)

Experiments:
[1] = tested on: PMA-induced oedema in mouse ear; assay: Acute contact dermatitis: TPA (PMA)-induced ear oedema in mice; format: in vivo; details: CD1 mice, 500 μg/ear topical in TPDS 30 min before TPA 0.01%, 6 h
Description: Groups of 5-6 CD1 mice (18-24 g) were used. • Administration of the compounds
All the macrolide compounds were dissolved in Trans-phase Delivery System (TPDS), a vehicle formed by 10% benzyl alcohol, 40% acetone and 50% isopropanol.
15 microlitres of the compounds (500 μg), dissolved in TPDS, were applied topically to the inner surface of an ear; 30 minutes later, 12 microlitres of a solution of tetradecanoylphorbol acetate (TPA) at a concentration of 0.01% dissolved in acetone were applied to the same area.
Six hours later, the animals were sacrificed by inhalation of CO2. • Evaluation of the results
Two methods were used to evaluate the auricular oedema: • a) Weight of a given portion of auricular pinna. • b) Measurement of the auricular thickness using precision spring callipers.
The degree of oedema was calculated by subtracting the weight or the thickness of the untreated ear from that of the contralateral treated ear. To determine the degree of remission of the oedema, the difference (weight or thickness) of the groups treated with TPA+macrolides was then compared with the groups treated with TPA alone.
The activity of the macrolide compounds was measured by using the modified method of Zunic et al. (1998): MDL (Lysyl) GDP, a non-toxic muramyl dipeptide derivative inhibits cytokine production by activated macrophages and protects mice from phorbol ester- and oxazolone-induced inflammation (J. Invest. Dermatol., 111(1), 77-82).
The data relating to erythromycin and azythromycin concern the treatment with a single dose of 500 μg/ear.

[2] = tested on: Staphylococcus aureus ATCC 29213; assay: Antibiotic activity, MIC in liquid medium; format: cell-based; details: ATCC29213, Staph. aureus ATCC 29213
Description: (§1) The MIC values were determined in liquid earth according to the method described in “Manual of Clinical Microbiology, 7th edition (1999), American Society for Microbiology”.

[3] = tested on: Streptococcus pneumoniae ATCC 49619; assay: Antibiotic activity, MIC in liquid medium; format: cell-based; details: ATCC49619, Strep. pneum ATTC 49619
Description: as §1

[4] = tested on: Enterococcus faecalis ATCC 29212; assay: Antibiotic activity, MIC or activity at 128 μg/ml; format: cell-based; details: Enter. faecalis ATCC 29212; for MIC: Enterococcus faecalis, ATCC29212
Description: as §1

[5] = tested on: Staphylococcus aureus ATCC 6538; assay: Antibiotic activity at 128 μg/ml; format: cell-based; details: Staph. aureus ATCC 6538; 128 μg/ml
Description: as §1

[6] = tested on: Streptococcus pyogenes ATCC 19615; assay: Antibiotic activity at 128 μg/ml; format: cell-based; details: Strep. pyogenes ATTC 19615; 128 μg/ml
Description: as §1

[7] = tested on: LPS-induced accumulation of neutrophils in rat lungs; assay: LPS-induced pulmonary inflammation in rats (neutrophil count in bronchial fluid wash); format: in vivo; details: Rattus norvegicus, Neutrophil, single oral dose 100, 40, 10 μmol/kg one hour before LPS 0.4 mg/kg endotracheal, 20 h, erythromycin: single oral dose 130 μmol/kg, read-out: ED50 (dose inducing 50% reduction in neutrophil count in bronchial fluid wash)
Description: B) LPS-Induced Pulmonary Inflammation in Rats • Administration
The rats received endotracheally, via the peroral route, a single dose of 0.4 mg/kg of LPS (E. coli, serotype 026:6). The tracheal instillation was performed under anaesthesia with halothane and, 20 hours after the endotracheal administration of LPS/saline solution, the animals were sacrificed by means of an overdose of urethane. • Washing
The lungs were washed with 4 aliquots of 5 ml each of saline solution with 10 IU ml^−1 heparin. The cell suspension was concentrated by low-speed centrifugation and the cell pellet was suspended. • Counting of the Cells and Differentiation.
The total cell count was performed in a haemocytometer.
The differential counting was performed on cytospin preparations stained with May-Grunwald-Giemsa (Tamaoki J., Tagaya E., Yamawaki I., Sakai, Nagai A., Konno K, 1995. Effect of erythromycin on endotoxin-induced microvascular leakage in the rat trachea and lungs. Am. J. Respir. Crit. Care Med., 151, 1582-8). The rats received the test compounds orally in doses of 100, 40 and 10 μmol/kg as a single administration dose orally one hour before exposure to LPS.
ED50 value is the dose that induced a 50% reduction in the neutrophil count in the bronchial fluid wash.
The data relating to erythromycin refers to an oral treatment with a single dose of 130 μmol/kg.

[8] = method a: weight of a given portion of auricular pinna
[9] = method b: auricular thickness by precision spring callipers

Structure (SMILES)	inhibition in vivo at 500 µg/ear [1, 8]	MIC [2]	MIC [3]	Antibiotic activity at 128 μg/ml [4]	MIC [4]	Antibiotic activity at 128 μg/ml [5]	Antibiotic activity at 128 μg/ml [6]	ED50 [7]	inhibition in vivo at 500 µg/ear [1, 9]
CC[C@H]1OC(=O)[C@H](C)[C@@H](O[C@H]2C[C@@](C)(OC)[C@@H](O)[C@H](C)O2)[C@H](C)[C@@H](O[C@@H]2O[C@H](C)C[C@H](N(C)C)[C@H]2O)[C@](C)(O)C[C@@H](C)CN(C)[C@H](C)[C@@H](O)[C@]1(C)O [Azythromycin, reference compound]	40%	–	–	–	–	–	–	–	–
CC[C@H]1OC(=O)[C@H](C)[C@@H](O)[C@H](C)[C@@H](O[C@@H]2O[C@H](C)C[C@H](N(C)C)[C@H]2O)C(C)(O)C[C@@H](C)[C@H](O)[C@H](C)[C@@H](O)[C@]1(C)O (stereo partly shown) [Compound 2]	36.2%	> 128 µg/mL	> 128 µg/mL	not active	> 128 µg/mL	not active	not active	–	–
CC[C@H]1OC(=O)[C@H](C)[C@@H](O)[C@H](C)[C@@H](O[C@@H]2O[C@H](C)C[C@H]([N+](C)(C)[O-])[C@H]2O)C(C)(O)C[C@@H](C)[C@H](O)[C@H](C)[C@@H](O)[C@]1(C)O (stereo partly shown) [Compound 3]	65.2%	> 128 µg/mL	> 128 µg/mL	not active	> 128 µg/mL	not active	not active	–	–
CC[C@H]1OC(=O)[C@H](C)[C@@H](O)[C@H](C)[C@@H](O[C@@H]2O[C@H](C)CC(N(C)CCCNCc3nccs3)[C@H]2O)C(C)(O)C[C@@H](C)[C@H](O)[C@H](C)[C@@H](O)[C@]1(C)O (stereo partly shown) [Compound 5]	53.4%	–	–	–	–	–	–	–	–
CC[C@H]1OC(=O)[C@H](C)[C@@H](O)[C@H](C)[C@@H](O[C@@H]2O[C@H](C)CC(N(C)C(=O)CNCCN(C)C)[C@H]2O)C(C)(O)C[C@@H](C)[C@H](O)[C@H](C)[C@@H](O)[C@]1(C)O (stereo partly shown) [Compound 6]	30.9%	–	–	–	–	–	–	–	–
CC[C@H]1OC(=O)[C@H](C)[C@@H](O)[C@H](C)[C@@H](O[C@@H]2O[C@H](C)C[C@H](N(C)CCNCCNCc3nccs3)[C@H]2O)[C@@](C)(O)C[C@@H](C)[C@H](O)[C@H](C)[C@@H](O)[C@]1(C)O [Compound 7]	45%	–	–	–	–	–	–	–	–
CC[C@H]1OC(=O)[C@H](C)[C@@H](O)[C@H](C)[C@@H](O[C@@H]2O[C@H](C)C=C[C@H]2O)C(C)(O)C[C@@H](C)[C@H](O)[C@H](C)[C@@H](O)[C@]1(C)O (stereo partly shown) [Compound 9]	32.4%	–	–	–	–	–	–	–	–
CC[C@H]1OC(=O)[C@H](C)[C@@H](O)[C@H](C)[C@@H](O[C@@H]2O[C@H](C)C[C@H](N(C)C)[C@H]2O)C(C)(O)C[C@@H](C)/C(=N\O)[C@H](C)[C@@H](O)[C@]1(C)O (stereo partly shown) [Compound 11]	70.2%	> 128 µg/mL	> 128 µg/mL	not active	> 128 µg/mL	not active	not active	–	–
CC[C@H]1OC(=O)[C@H](C)[C@@H](O)[C@H](C)[C@@H](O[C@@H]2O[C@H](C)C[C@H]([N+](C)(C)[O-])[C@H]2O)C(C)(O)C[C@@H](C)/C(=N\O)[C@H](C)[C@@H](O)[C@]1(C)O (stereo partly shown) [Compound 12]	87.4%	> 128 µg/mL	> 128 µg/mL	not active	> 128 µg/mL	not active	not active	–	–
CC[C@H]1OC(=O)[C@H](C)[C@@H](O)[C@H](C)[C@@H](O[C@@H]2O[C@H](C)C=C[C@H]2O)C(C)(O)C[C@@H](C)/C(=N\O)[C@H](C)[C@@H](O)[C@]1(C)O (stereo partly shown) [Compound 13]	77.4%	> 128 µg/mL	> 128 µg/mL	not active	> 128 µg/mL	not active	not active	–	–
CC[C@H]1OC(=O)[C@H](C)[C@@H](O)[C@H](C)[C@@H](O[C@@H]2O[C@H](C)CC[C@H]2O)C(C)(O)C[C@@H](C)/C(=N\O)[C@H](C)[C@@H](O)[C@]1(C)O (stereo partly shown) [Compound 14]	71.5%	–	–	–	–	–	–	15 µmol/kg	–
CC[C@H]1OC(=O)[C@H](C)[C@@H](O)[C@H](C)[C@@H](O[C@@H]2O[C@H](C)C[C@H](N(C)C)[C@H]2O)C(C)(O)C[C@@H](C)/C(=N\OC)[C@H](C)[C@@H](O)[C@]1(C)O (stereo partly shown) [Compound 15]	31.6%	–	–	not active	–	not active	not active	–	–
CC[C@H]1OC(=O)[C@H](C)[C@@H](O)[C@H](C)[C@@H](O[C@@H]2O[C@H](C)C[C@H]([N+](C)(C)[O-])[C@H]2O)C(C)(O)C[C@@H](C)/C(=N\OC)[C@H](C)[C@@H](O)[C@]1(C)O (stereo partly shown) [Compound 16]	72.3%	–	–	–	–	–	–	–	–
CC[C@H]1OC(=O)[C@H](C)[C@@H](O)[C@H](C)[C@@H](O[C@@H]2O[C@H](C)C=C[C@H]2O)C(C)(O)C[C@@H](C)/C(=N\OC)[C@H](C)[C@@H](O)[C@]1(C)O (stereo partly shown) [Compound 17]	41.9%	–	–	–	–	–	–	–	–
CC[C@H]1OC(=O)[C@H](C)[C@@H](O)[C@H](C)[C@H](O[C@@H]2O[C@H](C)CC([N+](C)(C)[O-])[C@@H]2O)[C@](C)(O)C[C@@H](C)/C(=N\OCCNCCNCc2nccs2)[C@H](C)[C@H](O)[C@]1(C)O (stereo partly shown) [Compound 20]	–	> 128 µg/mL	> 128 µg/mL	–	> 128 µg/mL	–	–	–	49.9%
CC[C@H]1OC(=O)[C@H](C)[C@@H](O)[C@H](C)[C@H](O[C@@H]2O[C@H](C)CC[C@@H]2O)[C@](C)(O)C[C@@H](C)/C(=N\OCCNCCNCc2nccs2)[C@H](C)[C@H](O)[C@]1(C)O [Compound 21]	–	> 128 µg/mL	> 128 µg/mL	not active	> 128 µg/mL	not active	not active	–	74.1%
CC[C@H]1OC(=O)[C@H](C)[C@@H](O)[C@H](C)[C@@H](O[C@@H]2O[C@H](C)CC[C@H]2O)C(C)(O)C[C@@H](C)/C(=N\OCCNCCNCc2ccco2)[C@H](C)[C@@H](O)[C@]1(C)O (stereo partly shown) [Compound 26]	–	–	–	not active	–	not active	not active	–	–
CC[C@H]1OC(=O)[C@H](C)[C@@H](O)[C@H](C)[C@@H](O[C@@H]2O[C@H](C)C[C@H](N(C)C)[C@H]2O)C(C)(OC)C[C@@H](C)[C@H](O)[C@H](C)[C@@H](O)[C@]1(C)O (stereo partly shown) [Compound 27]	–	> 128 µg/mL	> 128 µg/mL	–	> 128 µg/mL	–	–	–	–
CC[C@H]1OC(=O)[C@H](C)[C@@H](O)[C@H](C)[C@H](OC2O[C@H](C)C[C@H](N(C)C(C)=O)[C@@H]2O)C(C)(OC)C[C@H](C)/C(=N\O)[C@H](C)[C@@H](O)[C@]1(C)O (stereo partly shown) [Compound 29]	44.5%	–	–	–	–	–	–	–	–
CC[C@H]1OC(=O)[C@H](C)[C@@H](O)[C@H](C)[C@H](OC2O[C@H](C)C[C@H](N(C)CCCOCc3cccnc3)[C@@H]2O)C(C)(O)C[C@H](C)[C@H](O)[C@H](C)[C@@H](O)[C@]1(C)O (stereo partly shown) [Compound 30]	39.8%	–	–	–	–	–	–	–	–
